These results are taken from ChEMBL document CHEMBL5390209, “Spinosyn A and Its Derivative Inhibit Colorectal Cancer Cell Growth via the EGFR Pathway” (J Nat Prod, 2023).

Molecules are shown by their SMILES. Calls of active or inactive are those of the source. The calls are words filed in the database; no cut-off is given here.

The test system of data set [1] is SW480. Description: Inhibition of colony formation in human SW480 cells at 0.75 uM incubated for 14 days by crystal violet staining based colony formation assay. Particulars: time 14.0 day. In kind it is functional, cell-based.
Data set [2] addresses Epidermal growth factor receptor (Homo sapiens) (UniProt P00533). Description: Inhibition of EGFR in human HT-29 cells assessed as reduction in Erk1/2 phosphorylation level at 0.5 to 2 uM incubated for 24 hrs by Western blotting analysis. In kind it is cell-based. Particulars: dose 0.5-2 µM.
Data set [3] in a line: Toxicity in human HT-29 cells xenografted Balb/c mouse assessed as change in kidney pathology at 2.5 mg/kg/day, ip administrated for every other day and measured after 28 days. In kind it is organism-based. To be noted: in vivo, 672 h, time 28 day.
Data set [4] addresses Epidermal growth factor receptor (Homo sapiens) (UniProt P00533). The data set can be described thus: Inhibition of EGFR in human HT-29 cells assessed as reduction in Erk1/2 phosphorylation level at 2 uM by Western blotting analysis. In kind it is cell-based. To be noted: time 3-15 hrs, TDE = time-dependent effect.
For data set [5], the system named is HT-29. Description: Inhibition of EGFR in human HT-29 cells xenografted in BALB/c nude mouse assessed as EGFR protein level in tumor at 2.5 mg/kg/day, ip administrated for every other day and measured after 28 days by Western blotting analysis. To be noted: time 28.0 day. In kind it is functional, organism-based.
Data set [6] deals with Receptor tyrosine-protein kinase erbB-2 (Homo sapiens) (UniProt P04626). The data set can be described thus: Inhibition of HER2 in human HT-29 cells at 2 uM by Western blotting analysis. In kind it is cell-based. Particulars: time 3-15 hrs, TDE = time-dependent effect.
In data set [7] the test system is SW480. Description: Inhibition of colony formation in EGFR knockdown human SW480 cells at 0.75 uM incubated for 14 days by crystal violet staining based colony formation assay. Particulars: time 14.0 day. In kind it is functional, cell-based.
The subject of data set [8] is HT-29. Description: Antitumor activity against human HT-29 cells xenografted Balb/c mouse assessed as reduction in Ki67 expression level at 2.5 mg/kg/day, ip administrated for every other day and measured after 28 days by immunohistochemistry staining method. In kind it is functional, organism-based. Particulars: time 28.0 day.
The target in data set [9] is Epidermal growth factor receptor (Homo sapiens) (UniProt P00533). The data set can be described thus: Inhibition of EGFR in human HT-29 cells assessed as reduction in MEK1/2 phosphorylation level at 2 uM by Western blotting analysis. In kind it is cell-based. Particulars: time 3-15 hrs, TDE = time-dependent effect.
For data set [10] the target is unchanged. The data set can be described thus: Inhibition of EGFR in human SW480 cells assessed as reduction in STAT3 phosphorylation level at 0.5 to 2 uM incubated for 24 hrs by Western blot analysis. In kind it is cell-based. To be noted: dose 0.5-2 µM.
The test system of the next data set is HCT-116. Description: Inhibition of colony formation in human HCT-116 cells at 6 uM incubated for 14 days by crystal violet staining based colony formation assay. In kind it is functional, cell-based. Particulars: time 14.0 day.
Data set [11] concerns SW480. The data set can be described thus: Inhibition of colony formation in human SW480 cells at 6 uM incubated for 14 days by crystal violet staining based colony formation assay. In kind it is functional, cell-based. To be noted: time 14.0 day.
Data set [12] concerns the target Epidermal growth factor receptor (Homo sapiens) (UniProt P00533). The data set can be described thus: Inhibition of EGFR in human HT-29 cells assessed as reduction in MEK1/2 phosphorylation level at 3.75 to 15 uM incubated for 24 hrs by Western blotting analysis. In kind it is cell-based. To be noted: dose 3.75-15 µM.
Data set [13] has the same target. The data set can be described thus: Inhibition of EGFR in human HT-29 cells at 15 uM by Western blot analysis. In kind it is cell-based. To be noted: time 3-15 hrs, TDE = time-dependent effect.
Data set [14] concerns HT-29. Description: Inhibition of HER2 in human HT-29 cells xenografted in BALB/c nude mouse assessed as HER2 protein level in tumor at 5 mg/kg/day, ip administrated for every other day and measured after 28 days by Western blotting analysis. In kind it is functional, organism-based. To be noted: time 28.0 day.
The target in data set [15] is Epidermal growth factor receptor (Homo sapiens) (UniProt P00533). The data set can be described thus: Inhibition of EGFR in human HT-29 cells assessed as reduction in MEK1/2 phosphorylation level at 15 uM by Western blot analysis. In kind it is cell-based. Particulars: time 3-15 hrs, TDE = time-dependent effect.
The target is the same in data set [16]. The data set can be described thus: Inhibition of EGFR in human HT-29 cells assessed as reduction in Erk1/2 phosphorylation level at 3.75 to 15 uM incubated for 24 hrs by Western blotting analysis. In kind it is cell-based. To be noted: dose 3.75-15 µM.

Sequence of Epidermal growth factor receptor (Homo sapiens) (P00533 whole entry): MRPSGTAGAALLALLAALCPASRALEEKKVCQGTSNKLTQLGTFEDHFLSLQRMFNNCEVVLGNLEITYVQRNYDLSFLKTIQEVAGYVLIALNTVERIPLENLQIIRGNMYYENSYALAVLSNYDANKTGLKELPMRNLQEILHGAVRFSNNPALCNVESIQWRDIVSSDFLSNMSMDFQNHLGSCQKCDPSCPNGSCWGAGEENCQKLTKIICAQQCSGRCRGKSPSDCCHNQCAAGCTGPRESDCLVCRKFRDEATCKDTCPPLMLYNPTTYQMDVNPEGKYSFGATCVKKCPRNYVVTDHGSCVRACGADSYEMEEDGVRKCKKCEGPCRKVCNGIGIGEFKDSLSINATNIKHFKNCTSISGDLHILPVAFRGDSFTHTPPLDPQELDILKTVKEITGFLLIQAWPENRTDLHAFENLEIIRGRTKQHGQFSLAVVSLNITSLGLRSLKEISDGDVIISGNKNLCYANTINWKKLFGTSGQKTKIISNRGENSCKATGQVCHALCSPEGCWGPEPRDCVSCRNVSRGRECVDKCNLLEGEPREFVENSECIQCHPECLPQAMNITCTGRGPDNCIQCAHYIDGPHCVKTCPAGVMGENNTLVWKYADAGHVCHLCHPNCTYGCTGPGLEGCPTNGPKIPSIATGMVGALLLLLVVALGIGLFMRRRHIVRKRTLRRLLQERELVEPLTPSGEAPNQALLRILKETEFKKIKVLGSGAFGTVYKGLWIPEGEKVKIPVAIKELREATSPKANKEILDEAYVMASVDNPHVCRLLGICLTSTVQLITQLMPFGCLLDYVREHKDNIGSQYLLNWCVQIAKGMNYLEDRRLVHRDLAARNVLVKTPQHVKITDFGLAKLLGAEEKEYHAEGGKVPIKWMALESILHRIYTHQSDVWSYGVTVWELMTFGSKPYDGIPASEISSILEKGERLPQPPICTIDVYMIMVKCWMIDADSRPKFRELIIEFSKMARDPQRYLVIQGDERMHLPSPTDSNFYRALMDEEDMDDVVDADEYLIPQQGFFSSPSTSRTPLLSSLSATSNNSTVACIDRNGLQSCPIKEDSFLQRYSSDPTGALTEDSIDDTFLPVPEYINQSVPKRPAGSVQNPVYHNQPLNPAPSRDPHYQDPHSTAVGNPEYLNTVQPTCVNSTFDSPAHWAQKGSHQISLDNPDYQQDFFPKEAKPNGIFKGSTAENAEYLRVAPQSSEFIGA
Sequence of Receptor tyrosine-protein kinase erbB-2 (Homo sapiens) (P04626 whole entry): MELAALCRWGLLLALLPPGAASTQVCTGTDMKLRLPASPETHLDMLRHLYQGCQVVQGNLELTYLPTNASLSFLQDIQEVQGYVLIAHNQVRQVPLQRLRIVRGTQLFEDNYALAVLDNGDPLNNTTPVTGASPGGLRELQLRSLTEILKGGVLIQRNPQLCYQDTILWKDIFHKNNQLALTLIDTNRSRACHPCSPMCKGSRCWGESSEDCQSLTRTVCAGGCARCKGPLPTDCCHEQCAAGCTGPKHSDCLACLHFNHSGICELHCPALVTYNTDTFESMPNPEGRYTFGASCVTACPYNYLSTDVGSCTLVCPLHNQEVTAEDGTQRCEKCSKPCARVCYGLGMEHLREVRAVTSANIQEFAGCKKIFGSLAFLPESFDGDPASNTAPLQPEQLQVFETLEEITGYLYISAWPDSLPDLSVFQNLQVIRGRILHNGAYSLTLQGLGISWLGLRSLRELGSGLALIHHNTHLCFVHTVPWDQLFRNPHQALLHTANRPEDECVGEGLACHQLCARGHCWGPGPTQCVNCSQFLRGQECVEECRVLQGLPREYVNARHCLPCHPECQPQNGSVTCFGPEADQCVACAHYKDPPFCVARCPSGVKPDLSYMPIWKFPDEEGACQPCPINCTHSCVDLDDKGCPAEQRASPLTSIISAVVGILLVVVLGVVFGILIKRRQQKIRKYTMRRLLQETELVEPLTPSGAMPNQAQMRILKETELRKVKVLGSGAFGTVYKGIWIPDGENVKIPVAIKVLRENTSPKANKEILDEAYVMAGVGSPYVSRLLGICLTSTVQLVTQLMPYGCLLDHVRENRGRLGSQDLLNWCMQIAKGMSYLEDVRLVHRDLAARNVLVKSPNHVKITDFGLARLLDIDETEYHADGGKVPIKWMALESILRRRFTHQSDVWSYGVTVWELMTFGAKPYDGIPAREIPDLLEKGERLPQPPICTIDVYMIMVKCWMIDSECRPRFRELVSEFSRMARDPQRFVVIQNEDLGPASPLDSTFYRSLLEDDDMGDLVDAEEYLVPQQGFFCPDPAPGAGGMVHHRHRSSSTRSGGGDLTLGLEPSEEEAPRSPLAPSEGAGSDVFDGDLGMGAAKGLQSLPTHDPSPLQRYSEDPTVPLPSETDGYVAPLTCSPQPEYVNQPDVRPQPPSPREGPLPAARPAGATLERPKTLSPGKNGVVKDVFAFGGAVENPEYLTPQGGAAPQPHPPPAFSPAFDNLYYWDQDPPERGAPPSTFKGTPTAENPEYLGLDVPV

With `CC[C@H]1CCC[C@H](O[C@H]2CC[C@H](N(C)CC(O)CN3CCNCC3)[C@@H](C)O2)[C@@H](C)C(=O)C2=C[C@@H]3[C@@H](C=C[C@@H]4C[C@@H](O[C@@H]5O[C@@H](C)[C@H](OC)[C@@H](OC)[C@H]5OC)C[C@@H]34)[C@@H]2CC(=O)O1` (some centres not stated), the inhibition entry (with SW480 [1]; in data set [2]; in the data set with HT-29 [5]; in data set [10]) was “Active” throughout. Also, the Activity entry in [3] is listed as “Non-Toxic”. Besides, the inhibition result in data set [4], in data set [6] and in data set [9] was “Tde” throughout. In the data set on SW480 [7], the outcome was inactive. In addition, in the data set on HT-29 [8], the outcome was Active.
As to `CC[C@H]1CCC[C@H](O[C@H]2CC[C@H](N(C)C)[C@@H](C)O2)[C@@H](C)C(=O)C2=C[C@@H]3[C@@H](C=C[C@@H]4C[C@@H](O[C@@H]5O[C@@H](C)[C@H](OC)[C@@H](OC)[C@H]5OC)C[C@@H]34)[C@@H]2CC(=O)O1` [SPINOSYN A], the inhibition result (in the data set with HCT-116; in the data set on SW480 [11]; in [12]; with HT-29 [14]; in data set [16]) was “Active” throughout. For the same compound, the inhibition result in [13] and in [15] was “Tde” throughout.
